We go through 16 compounds from patent US20260200923A1, “HETEROCYCLIC COMPOUNDS TARGETING THE NUDT5 PROTEIN” (Oxford University Innovation Limited, priority 2022, published 2026).

Entries after “also recorded” stand apart in the source; their conditions may differ.

One experiment relates to MTHFD1^KO cells. The experiment can be described thus: growth of MTHFD1^KO cells in dialyzed serum media with compound supplementation. It counts as cell-based. The method, then: (§1) MTHFD1^KO cells in dialyzed FBS media were treated with a single nucleotide or folic acid metabolite for 72 hours. Cells were then stained with Hoechst, imaged, and counted using an Operetta (Perkin Elmer). For the AMPK activator studies, cells were stained with Hoechst, imaged, and counted using an Opera (Perkin Elmer). Similarly, MTHFD1^K56R cells in dialyzed FBS media were treated with adenosine for 72 hours. Cells were then stained with Hoechst, imaged, and counted using an Operetta (Perkin Elmer).
MTHFD1^KO cells (F5 clone) in dialyzed FBS media were treated with the CeMM compound library (89,228 chemically diverse compounds). Both cell number, using Hoechst staining, and CellTiter-Glo (Promega), an indicator of metabolically active cells, was both used as a readout, depending on the stage of the screen.
Briefly, the screening was divided into the three parts (i) primary screening, (ii) follow-up and (iii) validation. During the primary screen, MTHFD1^KO cells were treated with 10 μM of every compound and CellTiter-Glo (Promega) was used to assess their ability to increase cell growth after 48 hours. From this primary screening, 17 compounds were selected as hits and rescreened in the follow-up part, in which the MTHFD1^KO cells were treated in a six-point dose response for 72 hours to discard any false positives. Finally, in the validation part, MTHFD1^KO cells were treated with 10 compounds in an eight-point dose response curve and the cell numbers were counted by staining with Hoechst, imaging and counting nuclei using the Opera Phenix (Perkin Elmer) and Harmony software (Perkin Elmer).

The target of a further experiment is T1, NUDT5-CRBN interaction (Homo sapiens, UniProt Q96SW2+Q9UKK9).
T1 construct: expressed in transfected cells; host or cells: HEK293
The experiment can be described thus: NanoBRET ternary complex formation (protein-protein interaction) assay. It counts as cell-based. Conditions: HEK293 cells, 4 h. The method, then: For NanoBRET protein-protein interaction assay, NanoBRET Nano-Glo Detection System (N1662, Promega) was used according to the manufacturer's instruction. In brief, 220,000 HEK293 cells/ml was seeded in a 6-well plate. After 6 h, N-terminal nanoLuc NUDT5 and Halo-tag CRBN were then transfected into the cells using Fugene HD transfection reagent (E2312, Promega). The transfected HEK293 (220,000 cells/ml) were then replated onto a 384-well plate containing compounds. After 4 h incubation, NanoLuc substrate was added into each well and the signals were measured by PHERAstar Microplate Reader.
Compounds were dispensed in the 384-well plates by using Echo Acoustic Dispenser.

The target in experiment [1] is T2, NUDT5 (Homo sapiens, UniProt Q9UKK9). The experiment can be described thus: NUDT5 degradation by Western blot in HEK293 cells. Also noted: endogenous in cells; host or cells: HEK293 (also CRBN knock-out HEK293 for A13). It counts as cell-based. The method, then: For Western blots, proteins were separated on polyacrylamide gels with SDS running buffer (50 mM Tris, 380 mM Glycine, 7 mM SDS) and transferred to PVDF membranes. All membranes were then blocked with blocking buffer (5% w/v milk powder, BioRad) in TBST (50 mM Tris (tris(hydroxymethylaminomethane), 150 mM NaCl, 0.05% (v/v) Tween 20, adjusted to pH 7.6) Proteins were probed with antibodies against phospho-AMPK (50081S, 1:2000, Cell Signaling Technologies), AMPK (5832S, 1:2000, Cell Signaling Technologies), PML (ab179466, 1:1000, abeam), PARP8 (NBP213733, 1:1000, Novus Biologicals), ATF2/7 (82870, 1:1000, Cell Signaling Technologies), alpha-Tubulin (ab7291, 1:1000, Abeam), phospho-UBTF (ab182583, 1:1000, abeam), UBTF (HPA006385, 1:1000, Sigma), RBM38 (AV40862, 1:1000, Sigma), or NUDT5 (ab129172, 1:1000, abeam), detected by HRP (horse-radish peroxidase) conjugated donkey anti-rabbit IgG antibody (Pierce) or donkey anti-mouse antibody IgG antibody (Pierce) and visualized with Clarity ECL Western Blotting substrate (BioRad), according to provided protocol.

The target of another experiment is T3, NUDT14 (Homo sapiens, UniProt O95848).
T3 sequence (O95848 1-222): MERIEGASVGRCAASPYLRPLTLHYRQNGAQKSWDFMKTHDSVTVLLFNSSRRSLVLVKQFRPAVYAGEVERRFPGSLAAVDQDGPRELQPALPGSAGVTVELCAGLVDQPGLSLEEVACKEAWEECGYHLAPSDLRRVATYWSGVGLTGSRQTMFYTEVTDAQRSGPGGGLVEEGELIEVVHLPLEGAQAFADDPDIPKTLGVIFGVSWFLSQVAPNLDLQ
Put plainly: AMP-Glo catalytic assay, NUDT14. The note with it: 2 nM NUDT14, ADPr substrate, 1 hour, mean±SD; read-out: NUDT14 IC50. It counts as biochemical. The method, then: To identify alternative X groups, a screening exercise was performed. […] Inhibition activities of the compounds were determined using AMP-Glo system (Promega). The compounds were diluted from 50 μM to 0 μM in a final reaction containing 20 mM Hepes, 100 mM NaCl, 0.5 mM TCEP, 1 mM MgCl2 and 0.1% BSA, pH 7.4. The reactions were performed in 1536 well plate in […] reaction volume with 2 nM of NUDT5 and NUDT14, and […] of ADPr as the substrate. The final DMSO concentration was 0.5% for all reactions. NUDT5 reactions were incubated for 20 minutes while NUDT14 reactions were carried out for 1 hour at room temperature. […] The reactions were further incubated with the 4 μl of Detection solution for 1 hour at room temperature. Luminescence signals were then measured in PHERAstar FSX plate reader. Experiments were done in triplicate sets and data were analysed by GraphPad Prism 9. Data are represented as the mean±SD of three biological experiments: […]

The target of experiment [2] is T2, NUDT5. The experiment can be described thus: CRBN knock-out experiment, NUDT5 degradation. It counts as cell-based. Also noted: endogenous in cells; host or cells: HEK293 (also CRBN knock-out HEK293 for A13). Conditions: CRBN knock-out HEK293 cells, 20 h.
The next experiment has as its system MTHFD1^K56R cells. Put plainly: growth of MTHFD1^K56R cells in adenosine-containing media. It counts as cell-based. The note with it: adenosine-containing media, 72 h. The method, then:
HAP1 (KBM7-derived, Horizon Discovery, C859), and HAP1 MTHFD1^KO, MTHFD1^K56R, and MTHFD1^K386E cell lines were cultured in Iscove's Modified Dulbecco's Medium (IMDM, Sigma), supplemented with 10% Fetal Bovine Serum (FBS, Sigma) and 1% Penicillin/Streptomycin (P/S, Sigma).
as §1

The next experiment concerns HAP-1 cells. Put plainly: 6-thioguanine assay (CellTiter-Glo viability). It counts as cell-based. The note with it: 0.2 μg/ml 6-thioguanine, 72 h; HAP1 (and NB4, FIG. 11). How it is done: NB-4 and HAP1 cells (1000 cells/well in 40 uL) were seeded onto a 384-well plate containing compounds. DMSO or 0.2 μg/ml 6-thioguanine (A4882, Sigma-Aldrich) was added into respective wells. After 72 h incubation cell viability was measured by using CellTiter-Glo 2.0 Assay (G9242, Promega). Compounds in the 384-well plates were prepared by using Echo Acoustic Dispenser.
Background: In ATP-based viability assays light output follows the ATP content of the culture.

`NC(=O)c1ccc[n+]([C@@H]2O[C@H](COP(=O)([O-])OP(=O)(O)OC[C@H]3O[C@@H](n4cnc5c(N)ncnc54)[C@H](O)[C@@H]3O)[C@@H](O)[C@H]2O)c1` [NAD]: the “rescue of growth in dialyzed serum” value with MTHFD1^KO cells is reported as “able to rescue the growth”.

`Nc1ncnc2c1ncn2[C@@H]1O[C@H](COP(=O)(O)O)[C@@H](O)[C@H]1O` [AMP]: the “rescue of growth in dialyzed serum” value in the experiment on MTHFD1^KO cells was “able to rescue the growth”.

As for `Cn1c(=O)c2c(nc(N3CCN(CC4CCN(c5ccc6c(c5)C(=O)N(C5CCC(=O)NC5=O)C6=O)CC4)CC3)n2Cc2nnc(-c3ccc(Cl)c(Cl)c3)o2)n(C)c1=O` (stereo not shown) [Compound 070, 7-((5-(3,4-dichlorophenyl)-1,3,4-oxadiazol-2-yl)methyl)-8-(4-((1-(2-(2,6-dioxopiperidin-3-yl)-1,3-dioxoisoindolin-5-yl)piperidin-4-yl)methyl)piperazin-1-yl)-1,3-dimethyl-3,7-dihydro-1H-purine-2,6-dione], the “ternary complex formation between NUDT5 and CRBN” value on NUDT5-CRBN interaction is “induced the ternary complex”. Moreover, the “NUDT5 degradation at 100 nM, 20 h (%)” value on NUDT5 [1] is given as 39%. Moreover, the “NUDT5 degradation” value on NUDT5 [1] (Western blot, FIG. 12A) was “reasonable NUDT5 degrader”.

In the case of `C[S+](CC[C@H](N)C(=O)[O-])C[C@H]1O[C@@H](n2cnc3c(N)ncnc32)[C@H](O)[C@@H]1O` (stereo partly shown) [SAM], the “rescue of growth in dialyzed serum” value with MTHFD1^KO cells is “able to rescue the growth”.

Regarding `Cn1nc(-c2ccc(Oc3ccccc3)cc2)c2c(N)ncnc21` [Compound 2], the IC50 (in general, the point on the concentration scale where inhibition reaches its midpoint) on NUDT14 was found to be 604 ± 116 nM.

Take `O=c1[nH]cnc2nc[nH]c12` [hypoxanthine]: in the experiment on MTHFD1^KO cells, the “rescue of growth in dialyzed serum” value is recorded as “able to rescue the growth”.

With `Cn1c(=O)c2c(nc(N3CCN(C(=O)CCOCCOCCOCCOCCNc4cccc5c4C(=O)N(C4CCC(=O)NC4=O)C5=O)CC3)n2Cc2nnc(-c3ccc(Cl)c(Cl)c3)o2)n(C)c1=O` (stereo not shown) [Compound 130, 7-((5-(3,4-dichlorophenyl)-1,3,4-oxadiazol-2-yl)methyl)-8-(4-(1-((2-(2,6-dioxopiperidin-3-yl)-1,3-dioxoisoindolin-4-yl)amino)-3,6,9,12-tetraoxapentadecan-15-oyl)piperazin-1-yl)-1,3-dimethyl-3,7-dihydro-1H-purine-2,6-dione], on NUDT5 [1], the “NUDT5 degradation at 100 nM, 20 h (%)” value came out at 81%. Besides, at NUDT5 [2], the “dependence of degradation on E3 ligase” value is reported as “E3-ligase-dependant”.

For `Cn1c(=O)c2c(nc(N3CCN(C(=O)CCOCCOCCOCCNc4cccc5c4C(=O)N(C4CCC(=O)NC4=O)C5=O)CC3)n2Cc2nnc(-c3ccc(Cl)c(Cl)c3)o2)n(C)c1=O` (stereo not shown) [Compound 127, 7-((5-(3,4-dichlorophenyl)-1,3,4-oxadiazol-2-yl)methyl)-8-(4-(3-(2-(2-(2-((2-(2,6-dioxopiperidin-3-yl)-1,3-dioxoisoindolin-4-yl)amino)ethoxy)ethoxy)ethoxy)propanoyl)piperazin-1-yl)-1,3-dimethyl-3,7-dihydro-1H-purine-2,6-dione], the “NUDT5 degradation at 100 nM, 20 h (%)” value at NUDT5 [1] is reported as 76%. For the same compound, the “dependence of degradation on E3 ligase” value at NUDT5 [2] was “E3-ligase-dependant”.

As for `Cn1c(=O)c2c(nc(N3CCNCC3)n2Cc2nnc(-c3ccc(Cl)c(Cl)c3)o2)n(C)c1=O` [TH5427, reference compound], the “effect on adenosine toxicity / viability” value in the experiment with MTHFD1^K56R cells is on record as “did not affect the viability”. The “rescue of 6-TG toxicity” value in the experiment with HAP-1 cells is “did not show a rescue; also recorded: neither the negative control nor TH5427 gave any significant effects”.

For `Cn1c(=O)c2c(nc(N3CCN(C(=O)CCOCCOCCNc4cccc5c4C(=O)N(C4CCC(=O)NC4=O)C5=O)CC3)n2Cc2nnc(-c3ccc(Cl)c(Cl)c3)o2)n(C)c1=O` (stereo not shown) [Compound 068, 7-((5-(3,4-dichlorophenyl)-1,3,4-oxadiazol-2-yl)methyl)-8-(4-(3-(2-(2-((2-(2,6-dioxopiperidin-3-yl)-1,3-dioxoisoindolin-4-yl)amino)ethoxy)ethoxy)propanoyl)piperazin-1-yl)-1,3-dimethyl-3,7-dihydro-1H-purine-2,6-dione], on NUDT5 [1], the “NUDT5 degradation at 100 nM, 20 h (%)” value worked out at 52%. On NUDT5 [1] (HEK293, NUDT5 degradation), the Dmax (in general, the greatest extent of degradation seen) came out at 50%.

As to `Nc1ncnc2[nH]nc(-c3ccc(Oc4ccccc4)cc3)c12` [Compound 3], the half-inhibitory concentration (IC50) at NUDT14 stood at 548 ± 37 nM.

Take `CN1CCC(n2nc(-c3ccc(NC(=O)CCl)cc3)c3c(N)ncnc32)CC1` [Compound 8]: the IC50 at NUDT14 came out at 377 ± 35 nM.

For `NC(=O)C1=CN([C@@H]2O[C@H](COP(=O)(O)OP(=O)(O)OC[C@H]3O[C@@H](n4cnc5c(N)ncnc54)[C@H](O)[C@@H]3O)[C@@H](O)[C@H]2O)C=CC1` [NADH], the “rescue of growth in dialyzed serum” value in the experiment with MTHFD1^KO cells is on record as “able to rescue the growth”.

Take `Cc1cc2nc3c(=O)[nH]c(=O)nc-3n(C[C@H](O)[C@H](O)[C@H](O)COP(=O)(O)OP(=O)(O)OC[C@H]3O[C@@H](n4cnc5c(N)ncnc54)[C@H](O)[C@@H]3O)c2cc1C` [FAD]: the “rescue of growth in dialyzed serum” value with MTHFD1^KO cells was “able to rescue the growth”.

For the compound `Cn1c(=O)c2c(nc(N3CCN(CCC4CCN(c5ccc6c(c5)C(=O)N(C5CCC(=O)NC5=O)C6=O)CC4)CC3)n2Cc2nnc(-c3ccc(Cl)c(Cl)c3)o2)n(C)c1=O` (stereo not shown) [Compound 102, 7-((5-(3,4-dichlorophenyl)-1,3,4-oxadiazol-2-yl)methyl)-8-(4-(2-(1-(2-(2,6-dioxopiperidin-3-yl)-1,3-dioxoisoindolin-5-yl)piperidin-4-yl)ethyl)piperazin-1-yl)-1,3-dimethyl-3,7-dihydro-1H-purine-2,6-dione], the “NUDT5 degradation at 100 nM, 20 h (%)” value on NUDT5 [1] is on record as 46%.

`C=CC(=O)N1CCC=C(c2nn(C3CCN(C)CC3)c3ncnc(N)c23)C1` [Compound 5]: the 50% inhibitory concentration (IC50) at NUDT14 worked out at 4270 ± 133 nM.
